Measurements reported in EP0641563A1, “REMEDY FOR CATARACT AND PRODUCTION THEREOF” (TAISHO PHARMACEUTICAL CO. LTD, priority 1992, dated 1993).

Tests used:
[1] = test system: cultured rat lenses; assay: Calcium ionophore-induced cataract in cultured rat lenses (opacity by image analyser); type: cell-based, male S.D. rats; conditions: 10 µM calcium ionophore (A23187)
Method: Lenses were dissected from 4-week-old male S.D. rats, and cultured for one day in (1) a basic culture medium (MEM), (2) a culture medium of (1) supplemented with 10 µM calcium ionophore (A23187), or (3) a culture medium of (2) supplemented with 4, 20, 100 or 500 µM E-64 or E-64d. Thereafter, the medium was changed as follows: (1) basic medium, (2) basic medium, and (3) basic medium with several concentrations of E-64 or E-64d, and culture was continued for 4 more days, after which opacity of lenses was measured using an image analyser. The ratio of the inhibition of the development of lens opacity by each test drug (E-64, E-64d) to that in the control group is shown in Fig. 2. […] As is evident from the results of Fig. 2, E-64 or E-64d inhibited the opacity of lens caused by calcium ionophore in a concentration-dependent manner. The inhibition effect was stronger in E-64d than in E-64, and the opacity of lens was inhibited by 50% or more at a concentration of 20 µM.

[2] = test system: cultured rat lenses; conditions: selenite cataract models and diabetic cataract models of cultured rat lenses; Atarashii Ganka, vol. 6, 1573-1576 (1989); cited from earlier work
[3] = test system: galactose cataract in rats; assay: Galactose cataract in rats (slit lamp, Sippel grades); type: in vivo, male SD rats; conditions: for progression of cataract (grades of Sippel) compared with control: Wilcoxon method; for progression of cataract compared with control, time series variance analysis: up to day 28
Method: Three-week-old male SD rats (n=30) were bred in a breeding room having a temperature of 24±4°C and humidity of 55±15%, on Labo MR stock (manufactured by Nihon Nosan Kogyo Co., Ltd., Japan) and tap water.
As the test drugs, used were (1) 1% solution of E-64c prepared by dissolving E-64c bulk powder in 0.1N sodium hydroxide, adjusting the pH to 5 with 0.1N hydrochloric acid, and adding purified water; and (2) 1% suspension of E-64d prepared by suspending E-64d bulk powder in 0.3% Tween 80, the osmotic pressure of both of which having been adjusted to 290 mOsm/kg H₂O with sodium chloride. As a control, used was (3) physiological saline.
The test animals were pre-bred for a week, and then bred on a 25% galactose feed (solidified product of a mixture of galactose and Labo MR stock powder at the ratio of 1:3). The animals were fed for 24 hours daily for the first 7 days, and 9 hours a day from the 8th day. The test drugs were administered from the day when galactose feeding was initiated, and (1) was administered intraperitoneally once a day (100 mg/kg, 1 ml/100g as liquid), and (2) was instilled only in the right eye 4 times a day by 5 µl at a time without treatment to the left eye. The control group was instilled with (3) in the same manner as in the case of (2) without treatment to the left eye.
Lenses were observed under mydriasis using a slit lamp (SL-5D) at 7 day-intervals from the initiation of the test drug and physiological saline (control) administrations until day 28, and the progression of cataract up to the mature cataract was evaluated according to the following 8 stages of cataract grades defined by Sippel [Invest. Ophthalmol., vol. 6, 568-575 (1966)].

[4] = Corneal permeability in vitro (side-by-side permeation cell)
Method: Corneal permeability was tested in vitro using a side-by-side type permeation cell equipped with cornea from albino rabbit. A 1% E-64c solution prepared using a buffer having the following formulation was charged in a donor cell, and the following buffer was charged in a receptor cell, and they were incubated at 34°C. The amount of E-64c permeated into the receptor cell was measured with time. The accumulative amount of the permeated E-64c was measured 1, 2, and 3 hours later.
In the same manner as in Experiment Example 4, corneal permeability of a 1% E-64d suspension (pH 7) was examined.

[5] = pH stability of 1% E-64d suspensions; type: physicochemical; conditions: 1% E-64d suspension
Excerpt: The stability of 1% E-64d suspensions adjusted to various pHs was examined. […]

[6] = test system: cataract in Nakano mouse; assay: Cataract in Nakano mouse, intraperitoneal administration; type: in vivo, Nakano mice
Method: Thirty-five Nakano mice (9 days old) were divided into three groups, and each group was intraperitoneally administered once a day with E-64d at 30 mg/kg or 100 mg/kg, or 5% gum arabic solution as a control. E-64d was suspended in 5% gum arabic solution at a concentration of 0.15% or 0.5%, respectively, and administered to the mice. After the eyes of the mice opened, opacity of the lens was observed using a slip lamp to evaluate progress of cataract.

In the case of `CC(C)C[C@H](NC(=O)[C@H]1O[C@@H]1C(=O)O)C(=O)NCCCCNC(=N)N` [E-64, trans-epoxysuccinyl-leucylamide-(4-guanidino)butane, reference compound], the “inhibition of the opacity of lens caused by calcium ionophore” value ([1]; 4, 20, 100 or 500 µM) is listed as “concentration-dependent” and the “effect on opacity of lens” value [2] is listed as “can prevent opacity of lens”.

For `CC(C)CCNC(=O)[C@H](CC(C)C)NC(=O)[C@H]1O[C@@H]1C(=O)O` [E-64c, (+)-(2S,3S)-3[(S)-3-methyl-1-(3-methylbutylcarbamoyl)butylcarbamoyl]-2-oxiranecarboxylic acid], the “progression of cataract (grades of Sippel) compared with control” value ([3]; 1% E-64c solution, 100 mg/kg intraperitoneally once a day, 14 days from initiation of administration) was “significant delay of cataract”, the “progression of cataract compared with control, time series variance analysis” value ([3]; 1% E-64c solution, 100 mg/kg intraperitoneally once a day) was “significant delay of cataract” and the “corneal permeability, dependence on pH” value [4] was “pH-dependent”. The “effect on corneal tissue” value ([4]; 1% E-64c solution, pH range of 3 or below) was “tissue disorders causing corneal opacity were observed”.

For `CCOC(=O)[C@H]1O[C@@H]1C(=O)N[C@@H](CC(C)C)C(=O)NCCC(C)C` [E-64d], the “inhibition effect on lens opacity, E-64d compared with E-64” value ([1]; 4, 20, 100 or 500 µM) was “stronger”, the “inhibition of the opacity of lens caused by calcium ionophore” value ([1]; 4, 20, 100 or 500 µM) was “concentration-dependent” and the inhibition at 20 µM ([1]; Rattus norvegicus, 120 h, 20 µM, 5 days culture, read-out: percent inhibition of lens opacity based on the opacity in the control group) was at least 50%. For the same compound, the “progression of cataract (grades of Sippel) compared with control” value ([3]; 1% E-64d suspension instilled 4 times a day, 5 µl, 7 days from initiation of administration) was “significant delay of cataract”, the “progression of cataract (grades of Sippel) compared with control” value ([3]; 1% E-64d suspension instilled 4 times a day, 5 µl, 14 days from initiation of administration) was “significant delay of cataract” and the “progression of cataract (grades of Sippel) compared with control” value ([3]; 1% E-64d suspension instilled 4 times a day, 5 µl, 21 days from initiation of administration) was “delaying tendency”. The “progression of cataract compared with control, time series variance analysis” value ([3]; 1% E-64d suspension instilled 4 times a day, 5 µl) was “significant delay of cataract”, the stability ([5]; in the vicinity of pH 4-6) was “stable” and the residual rate ([5]; pH 4, 40°C (4 wk), 40320 min) was 96.6%. The residual rate ([5]; pH 4, 60°C (1 wk), 10080 min) was 98.7%, the residual rate ([5]; pH 5, 40°C (4 wk), 40320 min) was 99.8% and the residual rate ([5]; pH 5, 60°C (1 wk), 10080 min) was 98.7%. For the same compound, the residual rate ([5]; pH 6, 40°C (4 wk), 40320 min) was 95.2%, the residual rate ([5]; pH 6, 60°C (1 wk), 10080 min) was 97.9% and the residual rate ([5]; pH 7, 40°C (4 wk), 40320 min) was 75.7%. For the same compound, the “proportion of the group showing nuclear opacity” value ([6]; 30 mg/kg intraperitoneally once a day, mice 21 days old (control about 40%)) was “about 12%”, the “development of nuclear opacity” value ([6]; 100 mg/kg intraperitoneally once a day, mice 21 days old (control about 40%)) was “no development of opacity was observed” and the “degree of nuclear opacity compared with control, time-course observation” value ([6]; E-64d 30 or 100 mg/kg intraperitoneally once a day) was “limited to a smaller degree”. For the same compound, the “E-64d in the receptor solution” value ([4]; pH 7) was “not detected”.
